# Where two headings read alike, the source gives them in different places.
# Key:
# [1] = cited from earlier work; for AUC over 0-18 hours / Cmax: human, plasma (Rubino et al., 2009)
# [2] = Aerosol tolerability analysis of low concentration dosage forms; set-up: key to Throat Irritation: 1 = none; 5 = strong
# From the text: Additional observations include maintaining osmolality between about 250 to about 500 mOsmo/kg. The tolerability for formulations with an osmolalty outside this range may be adjusted with modifications in the above formulation parameters and device output and aerosol particle size characteristics.
smiles,measurement,setting,value
"Cc1ccc(=O)n(-c2ccccc2)c1 [pirfenidone, 5-methyl-1-phenyl-2-(1H)-pyridone]",T1/2 beta,"[1]; aerosol 110 mg RDD, lung tissue, from plasma T1/2, Rubino et al., 2009 fasted-state",2.5 h
same,T1/2 beta,"[1]; aerosol 110 mg RDD, plasma, Rubino et al., 2009 fasted-state",2.5 h
same,T1/2 beta,"[1]; aerosol 154 mg RDD, lung tissue, from plasma T1/2, Rubino et al., 2009 fasted-state",2.5 h
same,T1/2 beta,"[1]; aerosol 154 mg RDD, plasma, Rubino et al., 2009 fasted-state",2.5 h
same,T1/2 beta,"[1]; aerosol 185 mg RDD, lung tissue, from plasma T1/2, Rubino et al., 2009 fasted-state",2.5 h
same,T1/2 beta,"[1]; aerosol 185 mg RDD, plasma, Rubino et al., 2009 fasted-state",2.5 h
same,AUC over 0-18 hours,[1]; oral 801 mg fasted-state,67.7 mg·h/L
same,Cmax,[1]; oral 801 mg fasted-state,14.2 microgram/mL
same,AUC over 0-18 hours,[1]; oral 801 mg fed-state,58.9 mg·h/L
same,Cmax,[1]; oral 801 mg fed-state,7.9 microgram/mL
same,T1/2 beta,"[1]; oral 801 mg fasted-state, lung tissue, from plasma T1/2, Rubino et al., 2009",2.5 h
same,T1/2 beta,"[1]; oral 801 mg fasted-state, plasma, Rubino et al., 2009",2.5 h
same,T1/2 beta,"[1]; oral 801 mg fed-state, lung tissue, from plasma T1/2, Rubino et al., 2009",2.4 h
same,T1/2 beta,"[1]; oral 801 mg fed-state, plasma, Rubino et al., 2009",2.4 h
same,Est. Osmolality,"[2]; citrate 5 mM, MgCl2 130 mM, pH 5.5, pirfenidone 16 mg/mL",490 mOsmo/Kg
same,Throat Irritation,"[2]; citrate 5 mM, MgCl2 130 mM, pH 5.5, pirfenidone 16 mg/mL, 3.7 micron",3
same,Est. Osmolality,"[2]; citrate 5 mM, MgCl2 130 mM, saccharin 0.5 mM, pH 5.5, pirfenidone 16 mg/mL",490 mOsmo/Kg
same,Throat Irritation,"[2]; citrate 5 mM, MgCl2 130 mM, saccharin 0.5 mM, pH 5.5, pirfenidone 16 mg/mL, 3.7 micron",2
same,Est. Osmolality,"[2]; citrate 5 mM, NaCl 100 mM, MgCl2 43.3 mM, pH 5.5, pirfenidone 16 mg/mL",430 mOsmo/Kg
same,Throat Irritation,"[2]; citrate 5 mM, NaCl 100 mM, MgCl2 43.3 mM, pH 5.5, pirfenidone 16 mg/mL, 3.7 micron",3
same,Est. Osmolality,"[2]; citrate 5 mM, NaCl 100 mM, MgCl2 43.3 mM, saccharin 0.6 mM, pH 5.5, pirfenidone 16 mg/mL",430 mOsmo/Kg
same,Throat Irritation,"[2]; citrate 5 mM, NaCl 100 mM, MgCl2 43.3 mM, saccharin 0.6 mM, pH 5.5, pirfenidone 16 mg/mL, 3.7 micron",2
same,Est. Osmolality,"[2]; citrate 5 mM, NaCl 100 mM, pH 5.5, pirfenidone 4 mg/mL",270 mOsmo/Kg
same,Throat Irritation,"[2]; citrate 5 mM, NaCl 100 mM, pH 5.5, pirfenidone 4 mg/mL, 3.2 micron",2
same,Est. Osmolality,"[2]; citrate 5 mM, NaCl 100 mM, pH 5.5, pirfenidone 16 mg/mL (3.2 micron entry)",400 mOsmo/Kg
same,Est. Osmolality,"[2]; citrate 5 mM, NaCl 100 mM, pH 5.5, pirfenidone 16 mg/mL (first 3.7 micron entry)",400 mOsmo/Kg
same,Est. Osmolality,"[2]; citrate 5 mM, NaCl 100 mM, pH 5.5, pirfenidone 16 mg/mL (second 3.7 micron entry)",400 mOsmo/Kg
same,Throat Irritation,"[2]; citrate 5 mM, NaCl 100 mM, pH 5.5, pirfenidone 16 mg/mL, 3.2 micron",2
same,Throat Irritation,"[2]; citrate 5 mM, NaCl 100 mM, pH 5.5, pirfenidone 16 mg/mL, 3.7 micron (first entry)",3
same,Throat Irritation,"[2]; citrate 5 mM, NaCl 100 mM, pH 5.5, pirfenidone 16 mg/mL, 3.7 micron (second entry)",3
same,Est. Osmolality,"[2]; citrate 5 mM, NaCl 100 mM, saccharin 0.3 mM, pH 5.5, pirfenidone 4 mg/mL",270 mOsmo/Kg
same,Throat Irritation,"[2]; citrate 5 mM, NaCl 100 mM, saccharin 0.3 mM, pH 5.5, pirfenidone 4 mg/mL, 3.7 micron",2
same,Est. Osmolality,"[2]; citrate 5 mM, NaCl 100 mM, saccharin 0.7 mM, pH 5.5, pirfenidone 16 mg/mL (3.2 micron entry)",400 mOsmo/Kg
same,Est. Osmolality,"[2]; citrate 5 mM, NaCl 100 mM, saccharin 0.7 mM, pH 5.5, pirfenidone 16 mg/mL (3.7 micron entry)",400 mOsmo/Kg
same,Est. Osmolality,"[2]; citrate 5 mM, NaCl 100 mM, saccharin 0.7 mM, pH 5.5, pirfenidone 16 mg/mL (4.6 micron entry)",400 mOsmo/Kg
same,Throat Irritation,"[2]; citrate 5 mM, NaCl 100 mM, saccharin 0.7 mM, pH 5.5, pirfenidone 16 mg/mL, 3.2 micron",3
same,Throat Irritation,"[2]; citrate 5 mM, NaCl 100 mM, saccharin 0.7 mM, pH 5.5, pirfenidone 16 mg/mL, 3.7 micron",2
same,Throat Irritation,"[2]; citrate 5 mM, NaCl 100 mM, saccharin 0.7 mM, pH 5.5, pirfenidone 16 mg/mL, 4.6 micron (slower output device ~0.5 mL/minute)",1
same,Est. Osmolality,"[2]; citrate 5 mM, NaCl 100 mM, saccharin 0.9 mM, pH 5.5, pirfenidone 16 mg/mL (3.2 micron entry)",400 mOsmo/Kg
same,Est. Osmolality,"[2]; citrate 5 mM, NaCl 100 mM, saccharin 0.9 mM, pH 5.5, pirfenidone 16 mg/mL (3.7 micron entry)",400 mOsmo/Kg
same,Throat Irritation,"[2]; citrate 5 mM, NaCl 100 mM, saccharin 0.9 mM, pH 5.5, pirfenidone 16 mg/mL, 3.2 micron",1
same,Throat Irritation,"[2]; citrate 5 mM, NaCl 100 mM, saccharin 0.9 mM, pH 5.5, pirfenidone 16 mg/mL, 3.7 micron",2
same,Est. Osmolality,"[2]; citrate 5 mM, NaCl 150 mM, pH 5.5, pirfenidone 4 mg/mL (3.2 micron entry)",330 mOsmo/Kg
same,Est. Osmolality,"[2]; citrate 5 mM, NaCl 150 mM, pH 5.5, pirfenidone 4 mg/mL (3.7 micron entry)",330 mOsmo/Kg
same,Throat Irritation,"[2]; citrate 5 mM, NaCl 150 mM, pH 5.5, pirfenidone 4 mg/mL, 3.2 micron",1
same,Throat Irritation,"[2]; citrate 5 mM, NaCl 150 mM, pH 5.5, pirfenidone 4 mg/mL, 3.7 micron",2
same,Est. Osmolality,"[2]; citrate 5 mM, NaCl 150 mM, pH 5.5, pirfenidone 16 mg/mL",400 mOsmo/Kg
same,Throat Irritation,"[2]; citrate 5 mM, NaCl 150 mM, pH 5.5, pirfenidone 16 mg/mL, 3.7 micron",4
same,Est. Osmolality,"[2]; citrate 5 mM, NaCl 150 mM, saccharin 0.2 mM, pH 5.5, pirfenidone 4 mg/mL",330 mOsmo/Kg
same,Throat Irritation,"[2]; citrate 5 mM, NaCl 150 mM, saccharin 0.2 mM, pH 5.5, pirfenidone 4 mg/mL, 3.7 micron",2
same,Est. Osmolality,"[2]; citrate 5 mM, NaCl 150 mM, saccharin 0.3 mM, pH 5.5, pirfenidone 4 mg/mL",330 mOsmo/Kg
same,Throat Irritation,"[2]; citrate 5 mM, NaCl 150 mM, saccharin 0.3 mM, pH 5.5, pirfenidone 4 mg/mL, 3.7 micron",1
same,Est. Osmolality,"[2]; citrate 5 mM, NaCl 150 mM, saccharin 0.5 mM, pH 5.5, pirfenidone 16 mg/mL",400 mOsmo/Kg
same,Throat Irritation,"[2]; citrate 5 mM, NaCl 150 mM, saccharin 0.5 mM, pH 5.5, pirfenidone 16 mg/mL, 3.7 micron",1
same,Est. Osmolality,"[2]; citrate 5 mM, NaCl 150 mM, saccharin 0.9 mM, pH 5.5, pirfenidone 16 mg/mL",400 mOsmo/Kg
same,Throat Irritation,"[2]; citrate 5 mM, NaCl 150 mM, saccharin 0.9 mM, pH 5.5, pirfenidone 16 mg/mL, 3.7 micron",1
same,Est. Osmolality,"[2]; no buffer, NaCl 150 mM, pH ND, pirfenidone 16 mg/mL",375 mOsmo/Kg
same,Throat Irritation,"[2]; no buffer, NaCl 150 mM, pH ND, pirfenidone 16 mg/mL, 3.2 micron",5
same,Est. Osmolality,"[2]; no buffer, NaCl 150 mM, saccharin 0.7 mM, pH ND, pirfenidone 16 mg/mL",375 mOsmo/Kg
same,Throat Irritation,"[2]; no buffer, NaCl 150 mM, saccharin 0.7 mM, pH ND, pirfenidone 16 mg/mL, 3.2 micron",5
same,Est. Osmolality,"[2]; phosphate 5 mM, MgCl2 43.3 mM, pH 7, pirfenidone 16 mg/mL",210 mOsmo/Kg
same,Throat Irritation,"[2]; phosphate 5 mM, MgCl2 43.3 mM, pH 7, pirfenidone 16 mg/mL, 3.7 micron",5
same,Est. Osmolality,"[2]; phosphate 5 mM, MgCl2 43.3 mM, saccharin 0.5 mM, pH 7, pirfenidone 16 mg/mL",210 mOsmo/Kg
same,Throat Irritation,"[2]; phosphate 5 mM, MgCl2 43.3 mM, saccharin 0.5 mM, pH 7, pirfenidone 16 mg/mL, 3.7 micron",5
same,Est. Osmolality,"[2]; phosphate 5 mM, NaCl 50 mM, MgCl2 43.3 mM, pH 7, pirfenidone 16 mg/mL",310 mOsmo/Kg
same,Throat Irritation,"[2]; phosphate 5 mM, NaCl 50 mM, MgCl2 43.3 mM, pH 7, pirfenidone 16 mg/mL, 3.7 micron",4
same,Est. Osmolality,"[2]; phosphate 5 mM, NaCl 50 mM, pH 7, pirfenidone 16 mg/mL",200 mOsmo/Kg

# Reference: patent US10028966B2 (Avalyn Pharma Inc., priority 2014, dated 2018)
